Test results from publication PMC12375970, “Probing the extent of importin‐α targeting of the TAF8 NLS by eliminating its cationic net‐charge” (Protein Science : A Publication of the Protein Society, 2025).
Ends that are not written are not given here.

Experiments:
[1] = molecular target: T1, mImpα2 (Mus musculus, UniProt P52293); test: Microscale thermophoresis (MST); format: binding; settings: for Kd: RED-NHS-labelled mImpα2 60 nM, NLS 250 μM–7.6 nM, 20 mM Tris–HCl, 127 mM NaCl, pH 8.0, 0.5% Tween-20, mean ± SD of three experiments, read-out: KD, 1-binding site fitted model; for Hill Coeff.: Hill equation fit, mean ± SD of three experiments
T1 construct: MImpα2, residues 70–529, was co‐crystallized with each NLS analog; His-tag; made in house; host or cells: Escherichia coli BL21 (DE3)
Procedure: Microscale thermophoresis (MST) experiments were conducted using the Monolith NT.115 (Nanotemper, Germany). The RED‐NHS 2nd generation Nanotemper labeling kit (MO‐L011) was used to label mImpα2 in 20 mM Tris–HCl and 127 mM NaCl at pH 8.0. Ten microliter of RED‐NHS‐reacted mImpα2 at 60 nM was titrated against a serial 1:1 dilution (250 μM–7.6 nM) of 10 μL of NLS containing 0.5% Tween‐20, and the mixture was pipetted into 16 MST capillaries contained in a single cartridge. The samples were processed using default settings and followed the manufacturer's protocol. The binding model fits are detailed in Data S1.
A two-binding site and Hill fitting model were also performed by using the following equation in GraphPad. The experiments were repeated three times and the calculated affinity values were reported as the mean equilibrium KD ± standard deviation.
One binding site equation [11]:
Y= Et+Lt+KD- (Et+Lt+KD)2- 4EtLt2Et
Where Lt is the total ligand concentration; protein concentration is Et; KD is the dissociation constant or binding affinity.
Two binding site equation [11]: […]
Where KD1and KD2are the dissociation constants for binding site 1 and 2.
Where L is known, and cooperativity is explicitly reported as the Hill coefficient (n) […].

[2] = molecular target: T1, mImpα2; test: Apparent NLS–mImpα2 complex stability monitored by CD (thermal denaturation); format: binding; settings: for T°: CD thermal denaturation of mImpα2 in the presence of the ligand (mImpα2 alone 36.35); for ∆H°u (T°): CD thermal denaturation of mImpα2 with ligand, Van't Hoff method; for ΔG°u (25°C) / ΔG°u (37°C) / ΔΔG°u (25°C) / ΔΔG°u (37°C): CD; for ΔG°u (25°C) / ΔG°u (37°C): mImpα2 with ligand; for ΔΔG°u (25°C) / ΔΔG°u (37°C): relative to mImpα2 alone
Procedure: In the presence of TAF8 NLS, mImpα2 was stabilized, evidenced by the increase in temperature denaturation, shift in stability curves, and the reduction of the unfolded state (Figures S5a–c and 5a). The analogs also stabilized mImpα2, albeit to a lesser extent than TAF8 NLS.
CD measurements were conducted as previously described, including the determination of free energy using the Van't Hoff method (Jean‐Francois et al. [2003]). Fitting details are in Data S1.

[3] = system: Hela cells; test: Fluorescence microscopy of nuclear localization of EGFP-NLS constructs, Hela; format: cell-based; settings: Hela cells transfected with pCIneoEGFP constructs (EGFP fusions), 24 h post-transfection
Procedure: The plasmids, cloning, and cell culture transfection methods are described in Data S1. Cells were fixed with 3% paraformaldehyde (Electron Microscopy Sciences, Cat#15710) for 15 min at room temperature; then rinsed thoroughly with PBS. Nuclear staining was performed using 1 μg/mL DAPI (Sigma, Cat#D9542) in PBS. Following staining, cells were rinsed again with PBS and mounted with glass coverslips using Vectashield Antifade Mounting Medium (Vector Laboratories, Cat#H‐1000).
Fluorescence imaging was performed using a Zeiss AxioImager.M2 microscope (RRID:SCR_024706) equipped with a 40× EC Plan‐NeoFluar (1.3 NA; oil) objective, X‐Cite XYLIS LED illumination system, and a Zeiss AxioCam mRm CCD monochrome camera. Image acquisition and initial processing were performed using ZEN Blue software (RRID:SCR_013672), and additional analyses were performed using Fiji (ImageJ; RRID:SCR_002285). For each experimental condition, 15 randomly selected fields of view were imaged. Line overlay fluorescence intensity was quantified using the line profile tool in Fiji. A straight line across the entire cell length was drawn and centered on the nucleus. The “Plot Profile” function was used to extract pixel intensity values along the line. Three cells were analyzed per condition, and the data were presented as mean fluorescence intensity values. […]

[4] = Solubility of the synthesized peptides in water; settings: synthesized peptide
[5] = molecular target: importin‐α; settings: 1:1 stoichiometry; ref Trowitzsch et al. [2015]; read-out: Dissociation constant (KD) by ITC; cited from earlier work
Excerpt: The general transcription factor TFIID is essential for RNA polymerase II transcription initiation in eukaryotic cells. This megadalton protein complex, composed of several TATA‐binding‐associated factors (TAFs), is assembled into a functional transcription factor in the nucleus (Thomas and Chiang [2006]). […] The Berger group recently elucidated how an essential TFIID subcomplex consisting of TAF2, TAF8, and TAF10 is assembled in the cytoplasm (Trowitzsch et al. [2015]). […] Trowitzsch et al. originally reported K D value for TAF8 NLS of ~10 μM with 1:1 stoichiometry (Trowitzsch et al. [2015]). […] In c ...

Substance | Kd [1] [µM] | Hill Coeff. [1] | T° [2] [°C] | ∆H°u (T°) [2] [kcal/mol] | ΔG°u (25°C) [2] [kcal/mol] | ΔG°u (37°C) [2] [kcal/mol] | ΔΔG°u (25°C) [2] [kcal/mol] | ΔΔG°u (37°C) [2] [kcal/mol] | Nuclear localization (fluorescence) [3] | Soluble in H20 [4] | Kd [5] [µM]
EVKKPKIDE [A1] | 13.8 ± 2.31 |  |  |  |  |  |  |  |  |  | 
PVKKEKIEE [A2] | 15.9 ± 3.1 |  |  |  |  |  |  |  |  | Yes | 

More lines, main results first:

Kd [1] [µM] | Hill Coeff. [1] | T° [2] [°C] | ∆H°u (T°) [2] [kcal/mol] | ΔG°u (25°C) [2] [kcal/mol] | ΔG°u (37°C) [2] [kcal/mol] | ΔΔG°u (25°C) [2] [kcal/mol] | ΔΔG°u (37°C) [2] [kcal/mol] | Substance | Nuclear localization (fluorescence) [3] | Soluble in H20 [4] | Kd [5] [µM]
10.6 ± 2.14 | 0.71 ± 0.30 | 40.55 | 94.9 | 4.3 | 1.1 | 1.8 | 1.3 | H-PEKKPKIDE-OH [A3] |  |  | 
16.7 ± 1.96 | 0.64 ± 0.24 | 37.15 | 87.9 | 3.2 | 0.1 | 0.7 | 0.3 | PVKKEKIDE [A4] | outperformed A3 in promoting nuclear localization |  | 
1.21 ± 0.313 | 3.1 ± 0.39 | 47.45 | 170 | 11.1 | 5.4 | 8.6 | 5.6 | PVKKPKIRR [TAF8] |  | Yes | ~10
